Assay results reported in ChEMBL document CHEMBL6120965, “Structure-Activity Relationship Studies Leading to the Discovery of Highly Water-Soluble and Biocompatible Acyclic Cucurbit[n]uril FY-3451 as a Universal Antagonist That Rapidly Reverses Neuromuscular Blocking Agents In Vivo” (J Med Chem, 2024).

Columns and labels:
[1] = test system: Midazolium-based-macrocycle; experiment: Binding affinity to Midazolium-based-macrocycle by Competition UV-Vis titration method
Pancuronium = experiment: Binding affinity to Pancuronium by Competition UV-Vis titration method
Rhodamine 6G = experiment: Binding affinity to Rhodamine 6G by Competition UV-Vis titration method
[2] = Toxicity in iv dosed Sprague-Dawley rat assessed as maximum tolerated dose measured upto 14 days; type: organism-based; details: in vivo, 336 h, time < 14 day
Cisatracurium = experiment: Binding affinity to Cisatracurium by Competition UV-Vis titration method
[3] = Therapeutic index, ratio of toxicity in iv dosed Sprague-Dawley rat assessed as maximum tolerated dose to recovery of CisA-induced neuromuscular block in Sprague-Dawley rat assessed as […] ratio (TOFr) by measuring recovery time at 80 to 100 mg/kg, iv; type: organism-based; details: in vivo, dose 80-100 mg/kg, read-out: TI
Rattus norvegicus [4] = experiment: Recovery of Pan-induced neuromuscular block in Sprague-Dawley rat assessed as […] ratio (TOFr) >= 90% by measuring recovery time at 25 mg/kg, iv (reference value: 3600 seconds); type: functional
[5] = Solubility of the compound in sodium phosphate buffered water; type: physicochemical
Proflavine = experiment: Binding affinity to Proflavine by Competition UV-Vis titration method
Rattus norvegicus [6] = experiment: Recovery of Roc-induced neuromuscular block in Sprague-Dawley rat assessed as […] ratio (TOFr) >= 90% by measuring recovery time at 25 mg/kg, iv (reference value: 597 seconds); type: functional
Rocuronium = experiment: Binding affinity to Rocuronium by Competition UV-Vis titration method
Rattus norvegicus [7] = experiment: Recovery of Vec-induced neuromuscular block in Sprague-Dawley rat assessed as […] ratio (TOFr) >= 90% by measuring recovery time at 25 mg/kg, iv (reference value: 525 seconds); type: functional
Vecuronium = experiment: Binding affinity to Vecuronium by Competition UV-Vis titration method
Rattus norvegicus [8] = experiment: Recovery of CisA-induced neuromuscular block in Sprague-Dawley rat assessed as […] ratio (TOFr) >= 90% by measuring recovery time at 120 mg/kg, iv (reference value: 784 seconds); type: functional
Rattus norvegicus [9] = experiment: Recovery of IMC-1-induced neuromuscular block in Sprague-Dawley rat assessed as […] ratio (TOFr) >= 90% by measuring recovery time at 10 mg/kg, iv (reference value: 4021 seconds); type: functional
[10] = test system: Trans-cydohexane-1,4-diartunonium dichloride; experiment: Binding affinity to Trans-[…] dichloride by Competition UV-Vis titration method
[11] = Water solubility of the compound measured at 25 degreeC; type: physicochemical
[12] = Therapeutic index, ratio of toxicity in iv dosed Sprague-Dawley rat assessed as maximum tolerated dose to recovery of Roc/Vec/Panc-induced neuromuscular block in Sprague-Dawley rat assessed as […] ratio (TOFr) by measuring recovery time at 25 mg/kg, iv; type: organism-based; details: in vivo, read-out: TI
Rattus norvegicus [13] = experiment: Recovery of CisA-induced neuromuscular block in Sprague-Dawley rat assessed as […] ratio (TOFr) >= 90% by measuring recovery time at 80 mg/kg, iv (reference value: 784 seconds); type: functional
Rattus norvegicus [14] = experiment: Recovery of Roc-induced neuromuscular block in Sprague-Dawley rat assessed as […] ratio (TOFr) by measuring recovery time at 12.5 mg/kg, iv (reference value: […]); type: functional
[15] = Toxicity in Sprague-Dawley rat assessed as histological changes in heart measured at 2000 mg/kg, iv upto 14 days by H and E assay; type: organism-based; details: in vivo, 336 h, time < 14 day
[16] = Hemolytic activity in human erythrocytes assessed as hemolysis at 0.51 to 32.8 mg/ml; type: toxicity, cell-based, Erythrocyte; details: dose 0.51-32.8 mg/ml, read-out: Activity
[17] = Hemolytic activity in Sprague-Dawley rat erythrocytes assessed as hemolysis at 0.51 to 32.8 mg/ml; type: toxicity, cell-based, Erythrocyte; details: dose 0.51-32.8 mg/ml, read-out: Activity
Rattus norvegicus [18] = experiment: Recovery of CisA-induced neuromuscular block in Sprague-Dawley rat assessed as […] ratio (TOFr) >= 90% by measuring recovery time at 100 mg/kg, iv (reference value: 784 seconds); type: functional
[19] = Toxicity in Sprague-Dawley rat assessed as histological changes in liver measured at 2000 mg/kg, iv upto 14 days by H and E assay; type: organism-based; details: in vivo, 336 h, time < 14 day
[20] = Toxicity in Sprague-Dawley rat assessed as histological changes in spleen measured at 2000 mg/kg, iv upto 14 days by H and E assay; type: organism-based; details: in vivo, 336 h, time < 14 day
[21] = Toxicity in human whole blood assessed as clotting indices measured at 1 mg/ml; type: tissue-based
[22] = Toxicity in human plasma assessed as abnormality in aPTT by measuring clotting time at < 4.8 mg/kg; type: organism-based; details: in vivo
Rattus norvegicus [23] = experiment: Recovery of CisA-induced neuromuscular block in Sprague-Dawley rat assessed as […] ratio (TOFr) >= 90% by measuring recovery time at 150 mg/kg, iv (reference value: 784 seconds); type: functional
[24] = Cytotoxicity against rat H9c2 cells assessed as cell viability measured after 25 hrs by CCK-8 assay; type: toxicity, cell-based
[25] = Toxicity in Sprague-Dawley rat assessed as histological changes in lungs measured at 2000 mg/kg, iv upto 14 days by H and E assay; type: organism-based; details: in vivo, 336 h, time < 14 day
[26] = Toxicity in Sprague-Dawley rat assessed as body weight loss measured at 2000 mg/kg, iv upto 14 days; type: organism-based; details: in vivo, 336 h, time < 14 day
Rattus norvegicus [27] = experiment: Recovery of CisA-induced neuromuscular block in Sprague-Dawley rat assessed as […] ratio (TOFr) by measuring recovery time at 25 mg/kg, iv (reference value: 784 seconds); type: functional
[28] = Toxicity in Sprague-Dawley rat assessed as histological changes in kidney measured at 2000 mg/kg, iv upto 14 days by H and E assay; type: organism-based; details: in vivo, 336 h, time < 14 day
[29] = Cytotoxicity against rat H9c2 cells assessed as cell viability at 0.5 mg/ml measured after 25 hrs by CCK-8 assay; type: toxicity, cell-based; details: read-out: Activity

| SMILES | Ka [1] | Ka (Pancuronium) | Ka (Rhodamine 6G) | MTD [2] | Ka (Cisatracurium) | selectivity ratio [3] | Time (Rattus norvegicus [4]) | Ka (Proflavine) | Time (Rattus norvegicus [6]) | Ka (Rocuronium) | Time (Rattus norvegicus [7]) | Ka (Vecuronium) | Time (Rattus norvegicus [9]) | Ka [10] | solubility [11] | selectivity ratio [12] | further results |
| --- | --- | --- | --- | --- | --- | --- | --- | --- | --- | --- | --- | --- | --- | --- | --- | --- | --- |
| Cc1c(C)c(OCCCS(=O)(=O)[O-])c2c(c1OCCCS(=O)(=O)[O-])CN1C(=O)N3CN4C(=O)N5CN6C(=O)N7CN8C(=O)N9Cc%10c(c(OCCCS(=O)(=O)[O-])c(C)c(C)c%10OCCCS(=O)(=O)[O-])CN%10C(=O)N(CN%11C(=O)N(CN%12C(=O)N(CN%13C(=O)N(C2)[C@]1(C)[C@]%133C)[C@@H]4[C@@H]5%12)[C@@H]6[C@@H]7%11)[C@]8(C)[C@]%109C.[Na+].[Na+].[Na+].[Na+] | 119 10^7/M | 51 10^7/M | 0.045 10^7/M | 500 mg/kg | 0.13 10^7/M | 18.8 | 21 s | 13 10^7/M | 30 s | 9.84 10^7/M | 13 s | 2.92 10^7/M | 13 s | 0.069 10^7/M | 500 mg/mL | 60 | solubility [5]: 563 mg/mL; Time (Rattus norvegicus [8]): 28 s; Time (Rattus norvegicus [13]): 35 s |
| C[C@]12N3Cc4c(c(OCCCS(=O)(=O)[O-])c5c(c4OCCCS(=O)(=O)[O-])CCC5)CN1C(=O)N1CN4C(=O)N5CN6C(=O)N7CN8C(=O)N9Cc%10c(c(OCCCS(=O)(=O)[O-])c%11c(c%10OCCCS(=O)(=O)[O-])CCC%11)CN%10C(=O)N(CN%11C(=O)N(CN%12C(=O)N(CN(C3=O)[C@]12C)[C@@H]4[C@H]%125)[C@@H]6[C@H]%117)[C@]8(C)[C@@]9%10C.[Na+].[Na+].[Na+].[Na+] | 339 10^7/M | 1.22 10^7/M | 0.1 10^7/M | 500 mg/kg | 0.088 10^7/M | 18.8 | 20 s | 29.6 10^7/M | 24 s | 20.1 10^7/M | 15 s | 21 10^7/M | 12 s | 0.043 10^7/M | 1000 mg/mL | 60 | Time (Rattus norvegicus [14]): 15 s; Activity [15]: Non-toxic; hemolysis [16]: < 5%; hemolysis [17]: < 5%; Time (Rattus norvegicus [18]): 34 s; Activity [19]: Non-toxic; Activity [20]: Non-toxic; Activity [21]: Non-toxic; Activity [22]: Non-toxic; Time (Rattus norvegicus [23]): 24 s; IC50 at 25 h [24]: > 1000 µg/mL; Activity [25]: Non-toxic; Activity [26]: Non-toxic; Time (Rattus norvegicus [27]): 27 s; Activity [28]: Non-toxic; viability at 25 h, 0.5 mg/ml [29]: 80% |
